According to patent US20230190760A1, “ADVANTAGEOUS THERAPIES FOR DISORDERS MEDIATED BY IKAROS OR AIOLOS” (C4 Therapeutics, Inc., priority 2020, published 2023):

Columns and labels:
[1] = tested on: RPMI-8226 multiple myeloma tumors; conditions: Compound 1 10 μg/kg PO daily, Dexamethasone 5000 μg/kg IV once a week, Combination
Experimental: A xenograft study was conducted in female CB17 SCID mice bearing RPMI-8226 multiple myeloma tumors. Female SCID mice were inoculated subcutaneously in the right flank with 10×10^6 tumors cells in 0.2 mL of PBS supplemented with matrigel (PBS:matrigel=1:1). Tumor volume was measured twice weekly in two dimensions using calipers, and volume was calculated using the formula: (w2×l)/2=mm^3, assuming 1 mg is equivalent to 1 mm^3 of tumor volume. […] Treatment began on Day 0 with established subcutaneous RPMI-8226 tumors with a mean tumor volume (MTV) of 130 mm^3.
All agents were administered to mice bearing RPMI-8226 tumors on day 0 and dosed until an individual moue tumor volume reached or exceeded 1000 mm^3, at which point the mouse was removed from the study and dosing stopped. […] Dexamethasone was dosed IV once a week at 5000 μg/kg and formulated in saline. […] Body weight and MTV were measured on a 2× weekly schedule. The study end point was reaching a TV greater than 1000 mm^3, at which point any mouse with a TV reaching this cut off TV was removed from the study. […] The survival analysis used was Logrank (Mantel-Cox test). Data are expressed as MTV±SEM.

TMD8 DLBCL tumors [2] = conditions: Compound 1 50 μg/kg, Ibrutinib 12500 μg/kg, Combination of both; PO daily
Experimental: A xenograft study was conducted in female CB17 SCID mice bearing TMD8 DLBCL tumors. Female SCID mice were inoculated subcutaneously in the right flank with 5×10^6 tumors cells in 0.2 mL of PBS supplemented with matrigel (PBS:matrigel=1:1). Tumor volume was measured twice weekly in two dimensions using calipers, and volume was calculated using the formula: (w2×l)/2=mm^3, assuming 1 mg is equivalent to 1 mm^3 of tumor volume. […] Treatment began on Day 0 with established subcutaneous TMD8 tumors with a mean tumor volume (MTV) of 107-108 mm^3.
All agents were administered to mice bearing TMD8 tumors on day 0 and dosed PO daily until individual tumor volumes reached or exceeded 1500 mm^3, at which point dosing stopped and the individual mouse was removed from the study. Compound 1 was dosed at 50 μg/kg and was formulated in PEG400 (30% v/v)+70% v/v HPMC (1% w/v) in citrate buffer (pH 5). Ibrutinib was dosed at 12.5 mg/kg and formulated in 0.5% MC+0.4% cremophor EL+0.1% sodium lauryl sulfate. Compound 1 was also dosed in combination with Ibrutinib at their respective single agent doses. Body weight and MTV was measured on a 2× weekly schedule and the study end point was when all mice were removed from the study on day 54. Statistical analysis was performed using survival analysis and the Logrank test (Mantel-Cox test). Data are expressed as MTV±SEM.

[3] = Plasma PK and interconversion in monkeys; type: in vivo; conditions: monkey, Compound 1 60 μg/kg or 100 μg/kg PO, dose normalized to 1 mg/kg
Experimental: (§1) Compound 1 was administered to a rat at a concentration of 30 mg/kg PO and monkeys at a concentration of either 60 μg/kg or 100 μg/kg PO. At the indicated timepoints shown in FIG. 25A and FIG. 25B, plasma samples were collected and the Cmax, half-life, and AUC0-inf were determined for both Compound 1 and a metabolite of Compound 1, Compound 14. The percent of Compound 14 was also determined (Table 13). PK values dose normalized to 1 mg/kg. FIG. 25A is a graph measuring the concentration of Compound 1 or Compound 14 over the course of 24 hours in monkeys administered 100 μg/kg or 60 μg/kg of Compound 1. FIG. 25B is a graph measuring the concentration of Compound 1 or Compound 14 over the course of 24 hours in a rat administered 30 mg/kg of Compound 1.

[4] = Plasma PK and interconversion in rat; type: in vivo; conditions: Compound 1 30 mg/kg PO
Experimental: as §1

r/r subjects with MCL = conditions: r/r MCL following bortezomib; cited from earlier work
KMS-26 = assay: Anti-proliferative activity, 96 hours; conditions: KMS-26, 96 h
KARPASS422 = assay: Anti-proliferative activity, 96 hours
[5] = tested on: IMiD-resistant NCIH929 cells; assay: Growth of IMiD-resistant NCIH929 cells (CellTiter-Glo); conditions: at concentrations up to 10 μM
Experimental: Briefly, test compound was added to 384-well plates at a top concentration of 10 μM with 14 points, half log titration in duplicates. NCIH929 cells were seeded into the 384-well plates in RPMI medium containing 10% FBS and 0.05 mM 2-mercaptoethanol at a cell density of 750 cells per well. Cells treated in the absence of the test compound were the negative control and cells treated in the absence of CellTiter-Glo® 2.0 were the positive control. Cells treated with the test compounds were incubated at 37° C. with 5% CO2 for 96 hr. CellTiter-Glo reagent was then added to the cells and luminescence was acquired on EnVision™ Multilabel Reader (PerkinElmer, Santa Clara, Calif., USA). % Viability was determined by normalizing the signal with positive and DMSO treated negative controls on the same microtiter plate.

HuT 102 = assay: Anti-proliferative activity, 96 hours; conditions: HuT-102, 96 h
SU-DHL-1 = assay: Anti-proliferative activity, 96 hours; conditions: Homo sapiens, SU-DHL-1, 96 h
[6] = tested on: REC1 mantle cell lymphoma tumors; assay: REC1 mantle cell lymphoma xenograft, balb/c nude mice; type: in vivo; conditions: Compound 1 10, 30, or 100 μg/kg; pomalidomide 3000 μg/kg; 18 days
Experimental: A xenograft study was conducted in female balb/c nude mice bearing REC1 mantle cell lymphoma tumors.
(§2) Statistical analysis was performed using two-way analysis of variance (ANOVA). Data are expressed as MTV±SEM.

TMD8 DLBCL tumors [7] = assay: TMD8 DLBCL xenograft, NOD SCID mice; type: in vivo; conditions: Compound 1 100 μg/kg; pomalidomide 3000 μg/kg; 18 days
Experimental: A xenograft study was also conducted in female NOD SCID mice bearing TMD8 DLBCL tumors.
as §2

RPMI-8226 tumors = assay: RPMI-8226 xenograft, crossover from pomalidomide to Compound 1; type: in vivo, mice; conditions: 3000 μg/kg/day for 17 days
Experimental: Vehicle treated animals were treated for 28 days until tumors reached a MTV of 2211 mm^3. […] Data are expressed as MTV±SEM.
Tumor growth was monitored throughout the study. […] Measurements were twice weekly. The health of the mice was monitored, and noteworthy clinical observations were recorded. Acceptable toxicity was defined as a group's mean BW loss of less than 20% during the study and not more than one treatment related death among ten treated animals, or 10%.
Animals were weighed on a twice weekly schedule.

HH = assay: Anti-proliferative activity, 96 hours; conditions: Homo sapiens
SR = assay: Anti-proliferative activity, 96 hours; conditions: Homo sapiens
Maver-1 = assay: Anti-proliferative activity, 96 hours; conditions: Homo sapiens, Maver1, 96 h
Pfeiffer = assay: Anti-proliferative activity, 96 hours; conditions: Homo sapiens
KMM-1 = assay: Anti-proliferative activity, 96 hours; conditions: KMM-1, 96 h
DL40 = assay: Anti-proliferative activity, 96 hours
[8] = tested on: Caspase 3/7 activity in NCIH929 multiple myeloma cells; assay: Apoptosis induction, Caspase 3/7 activity in NCIH929 cells; type: cell-based; conditions: Homo sapiens, NCI-H929, 72 h, read-out: EC50, caspase 3/7 activity
Experimental: 30 μL NCIH929 cells were seeded into the 384-well plates in RPMI medium containing 10% FBS and 0.05 mM 2-mercaptoethanol at a cell density of 1000 cells per well. Cells treated in the absence of the test compound were the negative control. Following compound treatment, cells were incubated at 37° C. with 5% CO2 for 72 hr. 30 μL reconstituted Caspase 3/7 Assay detection reagent was added to each well and luminescence was acquired on EnVision™ Multilabel Reader (PerkinElmer, Santa Clara, Calif., USA).

WSU-DLCL2 = assay: Anti-proliferative activity, 96 hours; conditions: Homo sapiens, WSUDLCL2, 96 h
RPMI 8226 = assay: Anti-proliferative activity, 96 hours; conditions: Homo sapiens, RPMI-8226, 96 h
TMD8 = assay: Anti-proliferative activity, 96 hours; conditions: Homo sapiens, TMD8, 96 h
DOHH-2 = assay: Anti-proliferative activity, 96 hours; conditions: Homo sapiens, DOHH-2, 96 h
IKZF1 = IKZF1 (Homo sapiens, UniProt Q13422+Q96SW2)
Experimental: Endogenous expression of IKZF1 in NCIH929 cells was determined by addition of N-terminal HiBiT tag to the NCIH929 cell line using CRISPR-Cas9. Briefly, test compound was added to 384-well plates at a top concentration of 1 μM with 10 points, half log titration in duplicates. NCIH929 cells expressing HiBiT-tagged IKZF1 were seeded into the 384-well plates in RPMI medium containing 10% FBS and 0.05 mM 2-mercaptoethanol at a cell density of 15000 cells per well. Cells treated in the absence of the test compound were the negative control and wells containing media only were the positive control. Following compound treatment, cells were incubated at 37° C. with 5% CO2 for 1.5 hr. HiBiT signal was determined using Nano-Glo™ HiBiT Lytic Assay System (Promega, N3050) and luminescence was acquired on EnVision™ Multilabel Reader (PerkinElmer, Santa Clara, Calif., USA). % IKZF1 remaining was determined by normalizing the signal with positive and negative controls on the same microtiter plate. […] Curve fit and IC50 determination was performed by 4 parametric regression analysis.
NCIH929 cells expressing HiBiT-tagged IKZF1 were seeded into the 384-well plates in RPMI medium containing 10% FBS and 0.05 mM 2-mercaptoethanol at a cell density of 15000 cells per well. Cells treated in the absence of the test compound were the negative control and wells containing media only were the positive control. Following compound treatment, cells were incubated at 37° C. with 5% CO2 for 1 or 2 hr. HiBiT signal was determined using Nano-Glo™ HiBiT Lytic Assay System (Promega, N3050) and luminescence was acquired on EnVision™ Multilabel Reader (PerkinElmer, Santa Clara, Calif., USA). % IKZF1 remaining was determined by normalizing the signal with positive and negative controls on the same microtiter plate. Curve fit and IC50 determination was performed by 4 parametric regression analysis.

H929 = assay: Anti-proliferative activity, 96 hours; conditions: Homo sapiens, NCI-H929, 96 h
OPM-2 = assay: Anti-proliferative activity, 96 hours; conditions: Homo sapiens, OPM-2, 96 h
SU-DHL-2 = assay: Anti-proliferative activity, 96 hours; conditions: Homo sapiens, SU-DHL-2, 96 h
[9] = tested on: NCI-H929 multiple myeloma tumors; assay: NCI-H929 multiple myeloma xenograft, NOD SCID mice (Example 13); type: in vivo; conditions: 3000 μg/kg PO QD
Experimental: Compound 1 efficacy in two multiple myeloma cell lines (NC-H929) and (RPMI-8226) was evaluated at four different doses: 3 μg/kg, 10 μg/kg, 30 μg/kg, and 100 μg/kg. Compound 1 was administered QD (every day) orally (PO). […]
For the NCI-H929 cells, the xenograft study was conducted in female NOD SCID mice bearing NCI-H929 multiple myeloma tumors.
as §2

Jeko-1 = assay: Anti-proliferative activity, 96 hours; conditions: Homo sapiens, JeKo-1, 96 h
Rec-1 = assay: Anti-proliferative activity, 96 hours; conditions: Homo sapiens, Rec1, 96 h
MM.1R = assay: Anti-proliferative activity, 96 hours
RL = assay: Anti-proliferative activity, 96 hours; conditions: Homo sapiens
SU-DHL-5 = assay: Anti-proliferative activity, 96 hours; conditions: Homo sapiens, SU-DHL-5, 96 h
Farage = assay: Anti-proliferative activity, 96 hours
[10] = tested on: Caspase 3/7 activity in TMD8 cells; assay: Apoptosis induction, Caspase 3/7 activity in TMD8 cells; conditions: Homo sapiens, TMD8, 48 h, read-out: EC50, caspase 3/7 activity
Experimental: 30 μL TMD8 cells were seeded into the 384-well plates in RPMI medium containing 10% FBS at a cell density of 2000 cells per well. Cells treated in the absence of the test compound were the negative control. Following compound treatment, cells were incubated at 37° C. with 5% CO2 for 48 hr. 30 μL reconstituted Caspase 3/7 Assay detection reagent was added to each well and luminescence was acquired on EnVision™ Multilabel Reader (PerkinElmer, Santa Clara, Calif., USA).

NCIH929 cells = assay: NCI-H929 viability assay (CellTiter-Glo); conditions: 96 hours
Experimental: NCIH929 cell viability was determined based on quantification of ATP using CellTiter-Glo®2.0 luminescent Assay kit, which signals the presence of metabolically-active cells. Briefly, test compound was added to 384-well plates at a top concentration of 1 μM with 10 points, half log titration in duplicates. NCIH929 cells were seeded into the 384-well plates in RPMI medium containing 10% FBS and 0.05 mM 2-mercaptoethanol at a cell density of 750 cells per well. Cells treated in the absence of the test compound were the negative control and cells treated in the absence of CellTiter-Glo® 2.0 were the positive control. Cells treated with the test compounds were incubated at 37° C. with 5% CO2 for 96 hr. CellTiter-Glo reagent was then added to the cells and Luminescence was acquired on EnVision™ Multilabel Reader (PerkinElmer, Santa Clara, Calif., USA). % Viability was determined by normalizing the signal with positive and DMSO treated negative controls on the same microtiter plate. […] Curve fit and IC502 determination was performed by 4 parametric regression analysis.

OCI-LY10 = assay: Anti-proliferative activity, 96 hours; conditions: Homo sapiens, OCI-Ly10, 96 h
LP-1 = assay: Anti-proliferative activity, 96 hours; conditions: Homo sapiens, LP-1, 96 h
KIJK = assay: Anti-proliferative activity, 96 hours
MM.1S = assay: Anti-proliferative activity, 96 hours; conditions: Homo sapiens, MM1.S
Mino = assay: Anti-proliferative activity, 96 hours; conditions: Homo sapiens

Chain of IKZF1 (Q13422 whole entry): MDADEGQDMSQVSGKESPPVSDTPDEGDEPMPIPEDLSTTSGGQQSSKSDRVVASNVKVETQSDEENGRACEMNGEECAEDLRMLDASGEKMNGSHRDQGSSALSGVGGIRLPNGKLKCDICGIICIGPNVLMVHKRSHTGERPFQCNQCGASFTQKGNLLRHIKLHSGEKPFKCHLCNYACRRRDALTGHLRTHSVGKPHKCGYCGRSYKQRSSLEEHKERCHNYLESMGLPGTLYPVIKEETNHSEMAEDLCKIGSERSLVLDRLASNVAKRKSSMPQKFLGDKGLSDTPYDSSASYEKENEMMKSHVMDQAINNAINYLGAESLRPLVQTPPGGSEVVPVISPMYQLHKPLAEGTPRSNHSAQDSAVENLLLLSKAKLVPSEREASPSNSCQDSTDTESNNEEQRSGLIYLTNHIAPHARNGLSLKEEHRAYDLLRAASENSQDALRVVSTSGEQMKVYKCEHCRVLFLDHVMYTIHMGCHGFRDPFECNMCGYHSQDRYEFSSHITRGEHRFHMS
Chain of IKZF1 (Q96SW2 whole entry): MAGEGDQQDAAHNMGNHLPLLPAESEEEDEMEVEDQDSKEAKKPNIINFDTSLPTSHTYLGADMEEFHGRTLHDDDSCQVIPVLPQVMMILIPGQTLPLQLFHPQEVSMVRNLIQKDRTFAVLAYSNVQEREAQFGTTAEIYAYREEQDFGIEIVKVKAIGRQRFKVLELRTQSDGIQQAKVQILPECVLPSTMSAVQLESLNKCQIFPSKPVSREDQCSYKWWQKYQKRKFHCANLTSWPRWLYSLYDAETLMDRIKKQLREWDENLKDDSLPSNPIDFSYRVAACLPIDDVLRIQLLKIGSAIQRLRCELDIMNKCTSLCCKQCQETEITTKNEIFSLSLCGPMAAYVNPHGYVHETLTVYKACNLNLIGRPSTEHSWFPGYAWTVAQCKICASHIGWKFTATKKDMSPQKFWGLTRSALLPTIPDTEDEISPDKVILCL
Chain of IKZF1 (Q16531 2-1140 partner limits assumed): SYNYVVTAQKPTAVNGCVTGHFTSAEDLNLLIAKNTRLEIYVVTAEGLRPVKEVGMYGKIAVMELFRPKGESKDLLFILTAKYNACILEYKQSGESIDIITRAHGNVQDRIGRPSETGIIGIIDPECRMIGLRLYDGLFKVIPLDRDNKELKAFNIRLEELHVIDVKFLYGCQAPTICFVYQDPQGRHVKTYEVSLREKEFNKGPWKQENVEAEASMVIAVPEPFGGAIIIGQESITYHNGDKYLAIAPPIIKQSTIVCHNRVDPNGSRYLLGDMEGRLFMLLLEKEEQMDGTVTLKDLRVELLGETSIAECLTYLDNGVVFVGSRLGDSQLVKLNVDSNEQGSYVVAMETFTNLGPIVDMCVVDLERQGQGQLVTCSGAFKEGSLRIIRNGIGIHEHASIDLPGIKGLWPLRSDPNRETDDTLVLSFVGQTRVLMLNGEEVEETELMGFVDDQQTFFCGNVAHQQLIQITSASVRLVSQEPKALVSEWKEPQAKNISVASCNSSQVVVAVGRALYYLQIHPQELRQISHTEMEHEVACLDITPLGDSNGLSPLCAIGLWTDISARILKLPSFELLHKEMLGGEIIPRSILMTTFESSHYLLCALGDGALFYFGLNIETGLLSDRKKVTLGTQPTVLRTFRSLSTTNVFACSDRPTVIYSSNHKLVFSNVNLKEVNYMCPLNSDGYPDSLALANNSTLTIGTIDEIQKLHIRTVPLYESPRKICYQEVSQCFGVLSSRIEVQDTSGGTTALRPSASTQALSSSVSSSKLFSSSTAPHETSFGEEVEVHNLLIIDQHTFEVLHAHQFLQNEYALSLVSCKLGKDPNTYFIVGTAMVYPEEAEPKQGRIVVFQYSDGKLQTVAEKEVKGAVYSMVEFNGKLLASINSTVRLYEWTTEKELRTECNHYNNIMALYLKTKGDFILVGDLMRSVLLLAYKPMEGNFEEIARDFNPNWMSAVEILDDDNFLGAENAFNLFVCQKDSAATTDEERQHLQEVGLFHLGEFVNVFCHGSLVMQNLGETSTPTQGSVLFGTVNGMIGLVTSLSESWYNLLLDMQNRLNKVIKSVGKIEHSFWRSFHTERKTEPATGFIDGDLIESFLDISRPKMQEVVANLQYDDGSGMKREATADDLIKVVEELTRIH

C[C@@H]1C[C@H]2[C@@H]3CCC4=CC(=O)C=C[C@]4(C)[C@@]3(F)[C@@H](O)C[C@]2(C)[C@@]1(O)C(=O)CO [Dexamethasone, reference compound]
Median Survival [1]: 30

C=CC(=O)N1CCC[C@@H](n2nc(-c3ccc(Oc4ccccc4)cc3)c3c(N)ncnc32)C1 [Ibrutinib, 1-[(3R)-3-[4-amino-3-(4-phenoxy-phenyl)pyrazolo[3,4-d]pyrimidin-1-yl]piperidin-1-yl]prop-2-en-1-one, reference compound]
Median Survival (TMD8 DLBCL tumors [2]): 28

O=C1CC[C@@H](N2C(=O)c3cccc4c(Cc5ccc(CN6CCOCC6)cc5)ccc2c34)C(=O)N1 [Compound 14]
Cmax [3]: 5 ng/mL
AUC(0-inf) ([4]; dose normalized to 1 mg/kg): 47 ng·h/mL
Cmax ([4]; dose normalized to 1 mg/kg): 6 ng/mL
half-life ([4]; read-out: T ½ (converted)): 2.7 h

Nc1cccc2c1CN(C1CCC(=O)NC1=O)C2=O (centres unmarked) [lenalidomide]
median duration of response [DOR] (r/r subjects with MCL): 16.6 months
overall response rate [ORR] (r/r subjects with MCL): 28%

Nc1cccc2c1C(=O)N(C1CCC(=O)NC1=O)C2=O (centres unmarked) [Pomalidomide, reference compound]
IC50 (KMS-26): 2090 nM
IC50 (KARPASS422): 24.4 nM
growth inhibition [5]: less than 50%
IC50 (HuT 102): > 10000 nM
IC50 (SU-DHL-1): 378 nM
tumor volume [6]: increased
tumor volume (TMD8 DLBCL tumors [7]): increased
tumor response (RPMI-8226 tumors): no response
IC50 (HH): > 10000 nM
IC50 (SR): > 10000 nM
IC50 (Maver-1): > 10000 nM
IC50 (Pfeiffer): > 10000 nM
IC50 (KMM-1): 527 nM
IC50 (DL40): > 10000 nM
EC50 [8]: 407 nM
IC50 (WSU-DLCL2): > 10000 nM
IC50 (RPMI 8226): > 10000 nM
IC50 (TMD8): 327 nM
IC50 (DOHH-2): 1150 nM
Emax (IKZF1; NCI-H929, read-out: Mean Emax (%) ± SD, IKZF1 Degradation): 55.7 ± 6%
IKZF1 degradation (IKZF1; after 1 hour treatment): less than 25%
IC50 (H929): 171 nM
IC50 (OPM-2): 93.3 nM
IC50 (SU-DHL-2): > 10000 nM
Statistical Significance Compared to Vehicle [9]: 0.718
IC50 (Jeko-1): > 10000 nM
IC50 (Rec-1): 44.8 nM
IC50 (MM.1R): 193 nM
IC50 (RL): > 10000 nM
IC50 (SU-DHL-5): > 10000 nM
IC50 (Farage): > 10000 nM
EC50 [10]: 1200 nM
Mean Emax (%) ± SD, H929 Viability (NCIH929 cells; % viability): 15.6 ± 4.2%
IC50 (NCIH929 cells; read-out: Mean IC50 (nM), H929 Viability): 141 nM
IC50 (OCI-LY10): 47.7 nM
IC50 (LP-1): 576 nM
IC50 (KIJK): 4330 nM
IC50 (MM.1S): 71 nM
IC50 (Mino): 426 nM
